A short description of the series: Solubility of hexadecylphosphocholine in co-solvent systems at 25° C. It counts as physicochemical. As to conditions: aqueous with cosolvent or surfactant or cyclodextrin. The text has this:
The alkylphosphocholines are soluble in water, ethanol and methanol, but there are accurate bibliography data missing. […] For example, the solubility of alkylphosphocholines is sufficiency high in glycols and glycol ether. The improvement of alkylphosphocholines solubility is observed in propylene glycol-hexylene glycol-water mixtures as the solubility of alkylphosphocholines increases with increasing hexylene glycol concentration. The maximum is at 50% hexylene glycol level. […] The alkylphosphocholines solubility response is linear in the propylene glycol-concentration range 40÷60% in the co-solvent mixture. The addition of Transcutol P to the co-solvent mixture increased the solubility of alkylphosphocholines as a function of the concentration of Transcutol P, which may be due to a co-solvency effect. The functions of Transcutol P are simultaneously solubilizer and penetration enhancer to enable the active agent to cross the barrier of the stratum corneum.

The record followed here is patent US8722648B2, “Liquid pharmaceutical form of alkylphosphocholine and method for preparing same” (priority 2009, dated 2014).

≈ marks a conversion by molar mass, not a printed value.

A word on the solubility: it is the concentration that dissolves in the medium under given conditions. High values mean a readily soluble substance, low ones a poorly soluble substance.

`CCCCCCCCCCCCCCCCOP(=O)([O-])OCC[N+](C)(C)C` [hexadecylphosphocholine]: the solubility reads like this: (hexylene glycol 22, propylene glycol 44, Transcutol P 2, water 32 % v/v) 153 mg/mL (≈ 375 mM); (co-solvent system (hexylene glycol/propylene glycol/water), hexylene glycol 22, propylene glycol 44, Transcutol P 0, water 34 % v/v) 138 mg/mL (≈ 339 mM); (co-solvent system (hexylene glycol/water), hexylene glycol 22, propylene glycol 0, Transcutol P 0, water 78 % v/v) 119 mg/mL (≈ 291 mM).
